# From PubChem BioAssay AID1259407 (Chemical Carcinogenesis Research Information System (CCRIS), 2018)
# Calls of active or inactive are those of the source. How the calls were made is not given here.
# Test system: CCRIS mutagenicity, Ames/micronucleus/aberration tests
# Assay: CCRIS mutagenicity studies
# [1] = Test System: AMES SALMONELLA TYPHIMURIUM, Strain/Indicator: TA98(NR), Metabolic Activation: NONE, Method: PREINCUBATION
# [2] = Test System: AMES SALMONELLA TYPHIMURIUM, Strain/Indicator: TA98, Metabolic Activation: NONE, Method: PREINCUBATION
# [3] = Test System: AMES SALMONELLA TYPHIMURIUM, Strain/Indicator: TA100, Metabolic Activation: NONE, Method: PREINCUBATION
smiles,measurement,setting,value
O=[N+]([O-])c1ccc(Nc2ncnc3c2ncn3-c2ccc([N+](=O)[O-])cc2)cc1,mutagenic call,"Test System: AMES SALMONELLA TYPHIMURIUM, Strain/Indicator: TA98(1,8-DNP), Metabolic Activation: NONE, Method: PREINCUBATION",inactive; negative
same,mutagenic call,"Test System: AMES SALMONELLA TYPHIMURIUM, Strain/Indicator: TA98(1,8-DNP), Metabolic Activation: RAT, LIVER, S-9, PCB, Method: PREINCUBATION",inactive; negative
same,mutagenic call,[1],inactive; negative
same,mutagenic call,"Test System: AMES SALMONELLA TYPHIMURIUM, Strain/Indicator: TA98(NR), Metabolic Activation: RAT, LIVER, S-9, PCB, Method: PREINCUBATION",inactive; negative
same,mutagenic call,[2],inactive; negative
same,mutagenic call,"Test System: AMES SALMONELLA TYPHIMURIUM, Strain/Indicator: TA98, Metabolic Activation: RAT, LIVER, S-9, PCB, Method: PREINCUBATION",inactive; negative
same,mutagenic call,"Test System: AMES SALMONELLA TYPHIMURIUM, Strain/Indicator: TA100(1,8-DNP), Metabolic Activation: NONE, Method: PREINCUBATION",inactive; negative
same,mutagenic call,"Test System: AMES SALMONELLA TYPHIMURIUM, Strain/Indicator: TA100(1,8-DNP), Metabolic Activation: RAT, LIVER, S-9, PCB, Method: PREINCUBATION",inactive; negative
same,mutagenic call,"Test System: AMES SALMONELLA TYPHIMURIUM, Strain/Indicator: TA100(NR), Metabolic Activation: NONE, Method: PREINCUBATION",inactive; negative
same,mutagenic call,"Test System: AMES SALMONELLA TYPHIMURIUM, Strain/Indicator: TA100(NR), Metabolic Activation: RAT, LIVER, S-9, PCB, Method: PREINCUBATION",inactive; negative
same,mutagenic call,[3],inactive; negative
same,mutagenic call,"Test System: AMES SALMONELLA TYPHIMURIUM, Strain/Indicator: TA100, Metabolic Activation: RAT, LIVER, S-9, PCB, Method: PREINCUBATION",inactive; negative
same,mutagenic call,"Test System: AMES SALMONELLA TYPHIMURIUM, Strain/Indicator: YG1020, Metabolic Activation: NONE, Method: PREINCUBATION",inactive; negative
same,mutagenic call,"Test System: AMES SALMONELLA TYPHIMURIUM, Strain/Indicator: YG1020, Metabolic Activation: RAT, LIVER, S-9, PCB, Method: PREINCUBATION",inactive; negative
same,mutagenic call,"Test System: AMES SALMONELLA TYPHIMURIUM, Strain/Indicator: YG1021, Metabolic Activation: RAT, LIVER, S-9, PCB, Method: PREINCUBATION",active; positive
same,mutagenic call,"Test System: AMES SALMONELLA TYPHIMURIUM, Strain/Indicator: YG1024, Metabolic Activation: RAT, LIVER, S-9, PCB, Method: PREINCUBATION",inactive; negative
same,mutagenic call,"Test System: AMES SALMONELLA TYPHIMURIUM, Strain/Indicator: YG1025, Metabolic Activation: NONE, Method: PREINCUBATION",inactive; negative
same,mutagenic call,"Test System: AMES SALMONELLA TYPHIMURIUM, Strain/Indicator: YG1025, Metabolic Activation: RAT, LIVER, S-9, PCB, Method: PREINCUBATION",inactive; negative
same,mutagenic call,"Test System: AMES SALMONELLA TYPHIMURIUM, Strain/Indicator: YG1026, Metabolic Activation: NONE, Method: PREINCUBATION",inactive; negative
same,mutagenic call,"Test System: AMES SALMONELLA TYPHIMURIUM, Strain/Indicator: YG1026, Metabolic Activation: RAT, LIVER, S-9, PCB, Method: PREINCUBATION",inactive; negative
same,mutagenic call,"Test System: AMES SALMONELLA TYPHIMURIUM, Strain/Indicator: YG1029, Metabolic Activation: NONE, Method: PREINCUBATION",inactive; negative
same,mutagenic call,"Test System: AMES SALMONELLA TYPHIMURIUM, Strain/Indicator: YG1029, Metabolic Activation: RAT, LIVER, S-9, PCB, Method: PREINCUBATION",inactive; negative
Brc1ccccc1-c1ccccc1,mutagenic call,"Test System: AMES SALMONELLA TYPHIMURIUM, Strain/Indicator: TA98, Metabolic Activation: HAMSTER, LIVER, S-9, AROCLOR 1254, Method: PREINCUBATION",inactive; negative
same,mutagenic call,[2],inactive; negative
same,mutagenic call,"Test System: AMES SALMONELLA TYPHIMURIUM, Strain/Indicator: TA98, Metabolic Activation: RAT, LIVER, S-9, AROCLOR 1254, Method: PREINCUBATION",inactive; negative
same,mutagenic call,"Test System: AMES SALMONELLA TYPHIMURIUM, Strain/Indicator: TA100, Metabolic Activation: HAMSTER, LIVER, S-9, AROCLOR 1254, Method: PREINCUBATION",inactive; negative
same,mutagenic call,[3],inactive; negative
same,mutagenic call,"Test System: AMES SALMONELLA TYPHIMURIUM, Strain/Indicator: TA100, Metabolic Activation: RAT, LIVER, S-9, AROCLOR 1254, Method: PREINCUBATION",inactive; negative
same,mutagenic call,"Test System: AMES SALMONELLA TYPHIMURIUM, Strain/Indicator: TA1535, Metabolic Activation: HAMSTER, LIVER, S-9, AROCLOR 1254, Method: PREINCUBATION",inactive; negative
same,mutagenic call,"Test System: AMES SALMONELLA TYPHIMURIUM, Strain/Indicator: TA1535, Metabolic Activation: NONE, Method: PREINCUBATION",inactive; negative
same,mutagenic call,"Test System: AMES SALMONELLA TYPHIMURIUM, Strain/Indicator: TA1535, Metabolic Activation: RAT, LIVER, S-9, AROCLOR 1254, Method: PREINCUBATION",inactive; negative
same,mutagenic call,"Test System: AMES SALMONELLA TYPHIMURIUM, Strain/Indicator: TA1537, Metabolic Activation: HAMSTER, LIVER, S-9, AROCLOR 1254, Method: PREINCUBATION",inactive; negative
same,mutagenic call,"Test System: AMES SALMONELLA TYPHIMURIUM, Strain/Indicator: TA1537, Metabolic Activation: NONE, Method: PREINCUBATION",inactive; negative
same,mutagenic call,"Test System: AMES SALMONELLA TYPHIMURIUM, Strain/Indicator: TA1537, Metabolic Activation: RAT, LIVER, S-9, AROCLOR 1254, Method: PREINCUBATION",inactive; negative
CCCCCNc1snc2ccccc12,mutagenic call,"Test System: AMES SALMONELLA TYPHIMURIUM, Strain/Indicator: TA98, Metabolic Activation: NONE, Method: STANDARD PLATE",inactive; negative
same,mutagenic call,"Test System: AMES SALMONELLA TYPHIMURIUM, Strain/Indicator: TA98, Metabolic Activation: S-9, Method: STANDARD PLATE",inactive; negative
same,mutagenic call,"Test System: AMES SALMONELLA TYPHIMURIUM, Strain/Indicator: TA100, Metabolic Activation: NONE, Method: STANDARD PLATE",inactive; negative
same,mutagenic call,"Test System: AMES SALMONELLA TYPHIMURIUM, Strain/Indicator: TA100, Metabolic Activation: S-9, Method: STANDARD PLATE",inactive; negative
same,mutagenic call,"Test System: AMES SALMONELLA TYPHIMURIUM, Strain/Indicator: TA1535, Metabolic Activation: NONE, Method: STANDARD PLATE",inactive; negative
same,mutagenic call,"Test System: AMES SALMONELLA TYPHIMURIUM, Strain/Indicator: TA1535, Metabolic Activation: S-9, Method: STANDARD PLATE",inactive; negative
same,mutagenic call,"Test System: AMES SALMONELLA TYPHIMURIUM, Strain/Indicator: TA1537, Metabolic Activation: NONE, Method: STANDARD PLATE",inactive; negative
same,mutagenic call,"Test System: AMES SALMONELLA TYPHIMURIUM, Strain/Indicator: TA1537, Metabolic Activation: S-9, Method: STANDARD PLATE",inactive; negative
CC1=CC(O)=NS(=O)(=O)O1,mutagenic call,"End Point: In vivo micronucleus, Test System: Peripheral blood normochromatic erythrocytes, Species: Mouse, Strain/Sex: FVB.N/TgN (v-Ha-ras) Tg.AC hemizygous/Female, Route: Oral",inactive; negative
same,mutagenic call,"End Point: In vivo micronucleus, Test System: Peripheral blood normochromatic erythrocytes, Species: Mouse, Strain/Sex: FVB.N/TgN (v-Ha-ras) Tg.AC hemizygous/Male, Route: Oral",inactive; negative
same,mutagenic call,"End Point: In vivo micronucleus, Test System: Peripheral blood normochromatic erythrocytes, Species: Mouse, Strain/Sex: p53 Haploinsufficient/ Female, Route: Oral",inactive; negative
same,mutagenic call,"End Point: In vivo micronucleus, Test System: Peripheral blood normochromatic erythrocytes, Species: Mouse, Strain/Sex: p53 Haploinsufficient/Male, Route: Oral",active; positive
same,mutagenic call,"Test System: MOUSE LYMPHOMA, Strain/Indicator: L5178Y (TK+/TK-), Metabolic Activation: NONE, Method: SUSPENSION/PLATE",inactive; negative. reevaluation of results: negative
same,mutagenic call,"Test System: MOUSE LYMPHOMA, Strain/Indicator: L5178Y (TK+/TK-), Metabolic Activation: RAT, LIVER, S-9, AROCLOR 1254, Method: SUSPENSION/PLATE",inactive; negative. reevaluation of results: negative
O=[N+]([O-])c1ccc(I)c([N+](=O)[O-])c1,mutagenic call,"Test System: AMES SALMONELLA TYPHIMURIUM, Strain/Indicator: TA98(1,8-DNP6), Metabolic Activation: NONE, Method: PREINCUBATION",active; positive
same,mutagenic call,[1],active; positive
same,mutagenic call,[2],active; positive
